Each structure is given as a SMILES string.

The experiment deals with Insulin receptor (Homo sapiens, UniProt P06213). As to the kind of experiment: Inhibition of GST-tagged intracellular domain of IR by homogeneous time-resolved fluorescence assay.

`C=c1nns/c1=c1\[nH][nH]c(=O)c1=Cc1cn(C)c2cccc(OCc3ccccc3)c12`: the IC50 was greater than 10 µM.
`C=c1nns/c1=c1\[nH][nH]c(=O)c1=Cc1cn(C)c2cccc(OCc3ccccc3F)c12` registered an IC50 greater than 10 µM.
`C=c1nns/c1=c1\[nH][nH]c(=O)c1=Cc1cn(C)c2cccc(OCc3cccc(F)c3)c12` yielded an IC50 greater than 10 µM.
The figure for `C=c1nns/c1=c1\[nH][nH]c(=O)c1=Cc1cn(C)c2cccc(OCc3ccc(F)cc3)c12` is greater than 10 µM.
Turning to `C=c1nns/c1=c1\[nH][nH]c(=O)c1=Cc1cn(C)c2cccc(OCc3ccc(F)cc3F)c12`, the IC50 was greater than 10 µM.

Broadly, the IC50 is the midpoint of a concentration-inhibition curve. Lower therefore signals inhibition by little substance.

(Values after BindingDB's records for doi:10.1016/j.bmcl.2011.10.055 (Cephalon, 2011).)
